# Reference: patent US4192896A, “Method of using dialkylphenols in the treatment of mycoplasma diseases” (priority 1979, dated 1980)
# Assays:
# [1] = tested on: uninfected hamster tracheal explants; assay: Electron microscopic and histopathic examination of uninfected hamster tracheal explants exposed to 2,4-DMP; format: cell-based, golden hamster; conditions: 10^-3 and 10^-4 M
# Description: (§1) Adult golden hamsters (approximately 140 g. male and female) were used as the tissue source. Animals appearing to be disease-free were selected. Tracheas were removed aseptically and sliced into rings. The rings were rinsed and then transfered into sterile Petri dishes containing a shallow layer of minimal essential medium (MEM, with glutamine, NaHCO3, 10% horse serum and 500 units of penicillin G/ml). These organ cultures were incubated for 24 hours at 36° C. in 5% carbon dioxide and then scored for "relative activity" (RA), a measure of explant viability. "Relative Activity" (0 to 300) is the product of the percentage of the epithelial layer which is intact (0 to 100) and the relative vigor of ciliary beating (0 to 3).
# [2] = tested on: M. pneumoniae; assay: Surface morphology of tracheal rings exposed to M. pneumoniae; format: cell-based; conditions: at least 10^-9 M
# Description: (§2) The trachea rings were infected with M. pneumonia, strain PI 1428 (originally obtained from Dr. Robert Chanock, National Institutes of Health, Bethesda, Md.) which was used in the 10th to 12th passage and was grown on G-199 medium. Tracheal explants were infected with logarithmically growing cells using methods described by Gabridge, et al. Except where otherwise noted, groups of from 3 to 6 rings were preincubated for one hour in MEM with or without an appropriate amount of 2,4-dimethylphenol prior to the addition of mycoplasmas. Following exposure to M. pneumoniae for two hours, the rings were rinsed twice in phosphate buffered saline and then placed in a sterile Petri dish containing MEM and, where indicated, the required amount of 2,4-dimethylphenol or 2,4-DMP as used herein. Cultures were incubated at 36° in 5% carbon dioxide and scored daily for RA.
# (§3) Infection Studies: M. pneumoniae attaches to the surface (as used herein the surface refers to in luminal epithelial lining) of the tracheal tissue within an hour or two following exposure. Decreases in the vigor of ciliary activity and loss of epithelial cells are evident within 24 to 48 hours post-infection. In most cases, little or no ciliary activity remains by the sixth or seventh day.
# [3] = tested on: M. pneumoniae; assay: Protection of tracheal explants against the M. pneumoniae infective process (overall, in words); format: cell-based
# Description: as §1, §2
# (§4) Time Course: In the studies reported thus far, tracheal explants were pretreated with 2,4-DMP for one hour before exposure to M. pneumoniae. Some insight into the nature, that is, the site or mode of action, of this protective phenomenon may be gained by altering the time at which 2,4-DMP is added to the culture media.
# [4] = tested on: M. pneumoniae; assay: Tetrazolium reduction by hamster tracheal explants infected with M. pneumoniae; format: cell-based; conditions: for Tetrazolium Reduction 7 days post infection: Table 4, infecting titer 6 × 10^6 CFU/ml
# Description: as §2, §4
# [5] = tested on: M. pneumoniae; assay: Relative activity of hamster tracheal explants infected with M. pneumoniae; format: cell-based; conditions: for Relative Activity Days Following Infection With M. Pneumoniae / Relative Activity 7 days post infection: infecting titer 6 × 10^6 CFU/ml; for Relative Activity 7 days post infection: Table 4
# Description: as §1, §2, §3, §4
# [6] = culture A, 2,4 DMP added at -1 hours
# [7] = culture B, 2,4 DMP added at 0 hours
# [8] = culture C, 2,4 DMP added at 1 hours
# [9] = culture D, 2,4 DMP added at 2 hours
# [10] = culture E, 2,4 DMP added at 6 hours
# [11] = culture F, 2,4 DMP added at 24 hours
# [12] = culture G, 2,4 DMP added at 48 hours
structure (smiles),measurement,setting,value
"Cc1ccc(O)c(C)c1 [2,4-DMP, 2,4-dimethylphenol]",electron microscopic and histopathic examination of epithelium,[1],destruction of their epithelium
same,surface morphology of rings exposed to M. pneumoniae compared with uninfected controls,[2],indistinguishable from uninfected controls
same,protective effects on delayed addition,"[3]; 2,4-DMP withheld until attachment is essentially complete",significantly reduced or abolished completely
same,alteration of the infectious process,[3]; concentrations less than or equal to 10^-10 M,failed to alter the infectious process
same,"inhibiting or altering the course of the infective process, relative to the other dimethylphenol isomers",[3]; conditions of these studies and at the concentrations tested,more effective than any of the other isomers
same,effect on the course of infection of explants exposed to M. pneumoniae,[3]; very low concentrations in the culture media,dramatically alters the usual course of events
same,Tetrazolium Reduction 7 days post infection,[4]; 10^-8 moles/liter,1.066 ± 0.035
same,Tetrazolium Reduction 7 days post infection,[4]; 10^-9 moles/liter,1.016 ± 0.029
same,Tetrazolium Reduction 7 days post infection,[4]; 10^-10 moles/liter,0.543 ± 0.142
same,Tetrazolium Reduction 7 days post infection,[4]; 10^-22 moles/liter (so in the source),0.453 ± 0.033
same,ability to reduce tetrazolium of rings exposed to M. pneumoniae compared with uninfected controls,[4]; at least 10^-9 M,indistinguishable from uninfected controls
same,Tetrazolium Reduction 7 Days Following Infection With M. Pneumoniae,[4]; [6],1.071 ± 0.065 OD/mg
same,Tetrazolium Reduction 7 Days Following Infection With M. Pneumoniae,[4]; [7],1.068 ± 0.050 OD/mg
same,Tetrazolium Reduction 7 Days Following Infection With M. Pneumoniae,[4]; [8],1.062 ± 0.039 OD/mg
same,Tetrazolium Reduction 7 Days Following Infection With M. Pneumoniae,[4]; [9],0.893 ± 0.055 OD/mg
same,Tetrazolium Reduction 7 Days Following Infection With M. Pneumoniae,[4]; [10],0.722 ± 0.032 OD/mg
same,Tetrazolium Reduction 7 Days Following Infection With M. Pneumoniae,[4]; [11],0.386 ± 0.030 OD/mg
same,Tetrazolium Reduction 7 Days Following Infection With M. Pneumoniae,[4]; [12],0.379 ± 0.051 OD/mg
same,Tetrazolium Reduction 7 Days Following Infection With M. Pneumoniae,"[4]; culture H, 2,4 DMP added at 72 hours",0.381 ± 0.048 OD/mg
same,Relative Activity Days Following Infection With M. Pneumoniae,"[5]; 10^-8 moles/liter, day 1",270 ± 0
same,Relative Activity Days Following Infection With M. Pneumoniae,"[5]; 10^-8 moles/liter, day 2",270 ± 0
same,Relative Activity Days Following Infection With M. Pneumoniae,"[5]; 10^-8 moles/liter, day 3",260 ± 16
same,Relative Activity Days Following Infection With M. Pneumoniae,"[5]; 10^-8 moles/liter, day 4",260 ± 16
same,Relative Activity Days Following Infection With M. Pneumoniae,"[5]; 10^-8 moles/liter, day 5",260 ± 16
same,Relative Activity Days Following Infection With M. Pneumoniae,"[5]; 10^-8 moles/liter, day 6",255 ± 16
same,Relative Activity Days Following Infection With M. Pneumoniae,"[5]; 10^-8 moles/liter, day 7",255 ± 16
same,Relative Activity Days Following Infection With M. Pneumoniae,"[5]; 10^-10 moles/liter, day 1",260 ± 16
same,Relative Activity Days Following Infection With M. Pneumoniae,"[5]; 10^-10 moles/liter, day 2",255 ± 16
same,Relative Activity Days Following Infection With M. Pneumoniae,"[5]; 10^-10 moles/liter, day 3",240 ± 19
same,Relative Activity Days Following Infection With M. Pneumoniae,"[5]; 10^-10 moles/liter, day 4",175 ± 23
same,Relative Activity Days Following Infection With M. Pneumoniae,"[5]; 10^-10 moles/liter, day 5",150 ± 19
same,Relative Activity Days Following Infection With M. Pneumoniae,"[5]; 10^-10 moles/liter, day 6",135 ± 16
same,Relative Activity Days Following Infection With M. Pneumoniae,"[5]; 10^-10 moles/liter, day 7",115 ± 23
same,Relative Activity 7 days post infection,[5]; 10^-6 moles/liter,255 ± 16
same,Relative Activity 7 days post infection,[5]; 10^-7 moles/liter,255 ± 16
same,Relative Activity 7 days post infection,[5]; 10^-8 moles/liter,260 ± 10
same,Relative Activity 7 days post infection,[5]; 10^-9 moles/liter,263 ± 12
same,Relative Activity 7 days post infection,[5]; 10^-10 moles/liter,114 ± 22
same,Relative Activity 7 days post infection,[5]; 10^-14 moles/liter,125 ± 23
same,Relative Activity 7 days post infection,[5],124 ± 18
same,RA of rings exposed to M. pneumoniae compared with uninfected controls,[5]; at least 10^-9 M,indistinguishable from uninfected controls
same,Relative Activity 7 Days Following Infection With M. Pneumoniae,[5]; [6],268 ± 6
same,Relative Activity 7 Days Following Infection With M. Pneumoniae,[5]; [7],268 ± 6
same,Relative Activity 7 Days Following Infection With M. Pneumoniae,[5]; [8],265 ± 8
same,Relative Activity 7 Days Following Infection With M. Pneumoniae,[5]; [9],220 ± 23
same,Relative Activity 7 Days Following Infection With M. Pneumoniae,[5]; [10],188 ± 23
same,Relative Activity 7 Days Following Infection With M. Pneumoniae,[5]; [11],98 ± 16
same,Relative Activity 7 Days Following Infection With M. Pneumoniae,[5]; [12],95 ± 12
